From US12180226B2, “Spirotricycle RIPK1 inhibitors and methods of uses thereof” (Merck Sharp & Dohme LLC, priority 2021, dated 2024)
Where a name gives a salt, the structure may show the parent alone.

Molecular target: RIPK1 (recombinant GST-RIPK1 kinase domain, residues 1-327) (Homo sapiens (Human), UniProt Q13546)
Assay: RIPK1-ADP-Glo Enzymatic Assay
Assay type: biochemical
Details: ADP-Glo; 25 nM GST-RIPK1, 300 μM ATP; assay lower limit ~25 nM; read-out: RIPK1 V0 Ec50
Summary of the method: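 Enzyme from baculovirus-infected Sf21 cells, 25 nM final, was pre-incubated 30 min at ambient temperature with compound (ten-point, 1:3 dilution from 100000 nM, 1% DMSO), then reacted 150 min with 300 μM ATP and 3 μM dephosphorylated MBP. ADP was read by luminescence; EC50 from four-parameter fit.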

Chain of RIPK1 (recombinant GST-RIPK1 kinase domain, residues 1-327) (Q13546 1-327): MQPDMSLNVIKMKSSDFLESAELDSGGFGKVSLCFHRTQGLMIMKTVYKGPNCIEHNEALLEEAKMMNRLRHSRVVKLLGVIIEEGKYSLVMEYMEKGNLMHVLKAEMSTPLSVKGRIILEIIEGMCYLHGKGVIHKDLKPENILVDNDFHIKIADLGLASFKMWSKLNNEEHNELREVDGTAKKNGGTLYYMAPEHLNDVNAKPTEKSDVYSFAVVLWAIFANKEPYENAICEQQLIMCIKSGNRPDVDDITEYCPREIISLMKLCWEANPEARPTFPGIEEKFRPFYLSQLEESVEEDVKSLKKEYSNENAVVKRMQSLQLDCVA

Row | EC50 | Compound
1 | 0.0323 µM | O=C(c1ncoc1C1CC1)N1CCC2(CC1)O[C@@H]1CC[C@@H](c3cc(F)cc(F)c3)N1C2=O [Example 6.24, (5′S,7a′R)-1-(5-cyclo-propyl-1,3-oxazole-4-carbonyl)-5′-(3,5-difluorophenyl)tetra-hydro-3′H-spiro[piperi-dine-4,2′-pyrrolo[2,1-b][1,3]oxazol]-3′-one]
2 | < 0.025 µM | O=C1N2[C@@H](CC[C@H]2c2ccccc2F)OC12CCN(c1ccnc3ccnn13)CC2 [Example 4.103, (5′S,7a′R)-5′-(2-fluorophenyl)-1-(pyrazolo[1,5-a]pyrimidin-7-yl)tetrahydro-3′H-spiro[piperidine-4,2′-pyrrolo[2,1-b]oxazol]-3′-one]
3 | 0.321 µM | O=C(c1nc2ncccc2s1)N1CCC2(CC1)O[C@@H]1CC[C@@H](c3cc(F)cc(F)c3)N1C2=O [Example 6.26]
4 | 0.0508 µM | O=C1N2[C@@H](CC[C@H]2c2ccccc2)OC12CCN(c1nc3ccncc3o1)CC2 [Example 4.158, (5′S,7a′R)-1-([1,3]oxazolo[5,4-c]pyridin-2-yl)-5′-phenyltetrahydro-3′H-spiro[piperidine-4,2′-pyrrolo[2,1-b] [1,3]oxazol]-3′-one]
5 | < 0.025 µM | Cc1occc1C(=O)N1CCC2(CC1)O[C@@H]1CC[C@@H](c3cc(F)cc(F)c3)N1C2=O [Example 5.37, (5′S,7a′R)-5′-(3,5-difluoro-phenyl)-1-(2-methylfuran-3-carbonyl)tetrahydro-3′H-spiro[piperidine-4,2′-pyrrolo[2,1-b]oxazol]-3′-one]
6 | 0.136 µM | Cc1ccnc(C(=O)N2CCC3(CC2)O[C@@H]2CC[C@@H](c4cc(F)cc(F)c4)N2C3=O)n1 [Example 6.88, (5′S,7a′R)-5′-(3,5-difluorophenyl)-1-(4-methylpyrimidine-2-carbonyl)tetrahydro-3′H-spiro[piperidine-4,2′-pyrrolo[2,1-b] [1,3]oxazol]-3′-one]
7 | 0.357 µM | Cc1cc2c(nc1N1CCC3(CC1)O[C@@H]1CC[C@@H](c4ccccc4)N1C3=O)CNC2=O [Example 4.187, (5′S,7a′R)-1-(3-methyl-5-oxo-6,7-dihydro-5H-pyrrolo[3,4-b]pyridin-2-yl)-5′-phenyltetrahydro-3′H-spiro[piperidine-4,2′-pyrrolo[2,1-b] [1,3]oxazol]-3′-one]
8 | < 0.025 µM | N#Cc1ccc(N2CCC3(CC2)O[C@@H]2CC[C@@H](c4cc(F)cc(F)c4)N2C3=O)n2nccc12 [Example 14.1, 7-((5′S,7a′R)-5′-(3,5-difluorophenyl)-3′-oxotetrahydro-3′H-spiro [piperidine-4,2′-pyrrolo [2,1-b]oxazol]-1-yl)pyrazolo[1,5-a]pyridine-4-carbonitrile, TFA]
9 | < 0.025 µM | O=C1N2[C@@H](CC[C@H]2c2ccccc2)OC12CCN(c1ncc(-c3cocn3)cc1F)CC2 [Example 21.6, (5′S,7a′R)-1-[3-fluoro-5-(1,3-oxazol-4-yl)pyridin-2-yl]-5′-phenyltetrahydro-3′H-spiro[piperidine-4,2′-pyrrolo[2,1-b][1,3]oxazol]-3′-one]
10 | < 0.025 µM | O=C1N2[C@H](OC13CCN(c1ccnc4c(F)cnn14)CC3)[C@@H](F)C[C@H]2c1ccccc1 [Example 9.1, (5′S,7′S,7a′R)-7′-Fluoro-1-(3-fluoropyrazolo[1,5-a]pyrimidin-7-yl)-5′-phenyltetrahydro-3′H-spiro[piperidine-4,2′-pyrrolo[2,1-b]oxazol]-3′-one]
11 | < 0.025 µM | O=C1N2[C@@H](CO[C@H]2c2cc(F)cc(F)c2)CC12CCN(c1ccnc3c(F)cnn13)CC2 (stereo in doubt) [Example 4.148, 3′-(3,5-difluorophenyl)-1-(3-fluoropyrazolo[1,5-a]pyrimidin-7-yl)dihydro-1′H,3′H,5′H-spiro[piperidine-4,6′-pyrrolo[1,2-c] [1,3]oxazol]-5′-one]
12 | 0.552 µM | CC(F)c1cc(N2CCC3(CC2)O[C@@H]2CC[C@@H](c4ccccc4)N2C3=O)ncn1 (stereo partly drawn) [Example 4.215, (5′S,7a′R)-1-[6-(1-fluoroethyl)pyrimidin-4-yl]-5′-phenyltetrahydro-3′H-spiro[piperidine-4,2′-pyrrolo[2,1-b] [1,3]oxazol]-3′-one]
13 | 0.0378 µM | O=C1N2[C@@H](CC[C@H]2c2ccccc2F)OC12CN(c1ccnc(Cl)c1)C2 [Example 4.109, (5′S,7a′R)-1-(2-chloropyridin-4-yl)-5′-(2-fluorophenyl)tetrahydro-3′H-spiro[azetidine-3,2′-pyrrolo[2,1-b]oxazol]-3′-one]
14 | 0.0964 µM | O=C(c1nc2ccncc2s1)N1CCC2(CC1)O[C@@H]1CC[C@@H](c3cc(F)cc(F)c3)N1C2=O [Example 6.23, (5′S,7a′R)-5′-(3,5-difluorophenyl)-1-([1,3]thiazolo[5,4-c]-pyridine-2-carbonyl) tetrahydro-3′H-spiro [piperidine-4,2′-pyrrolo[2,1-b][1,3]oxazol]-3′-one]
15 | < 0.025 µM | O=C1N2[C@@H](CC[C@H]2c2ccccc2)SC12CCN(c1ccnc3ccnn13)CC2 [Example 4.116, (5′S,7a′R)-5′-phenyl-1-(pyrazolo[1,5-a]pyrimidin-7-yl)tetrahydro-3′H-spiro[piperidine-4,2′-pyrrolo[2,1-b]thiazol]-3′-one]
16 | 0.457 µM | Cc1ccccc1[C@@H]1CC[C@H]2OC3(CCN(C(=O)c4ccccc4)CC3)C(=O)N21 [Example 6.135, (5′S,7a′R)-1-(benzene-carbonyl)-5′-(2-meth-ylphenyl)tetrahydro-3′H-spiro[piperidine-4,2′-pyrrolo[2,1-b] [1,3]oxazol]-3′-one]
17 | < 0.025 µM | O=C1N2[C@@H](CC[C@H]2c2ccccc2)OC12CCN(c1ccc(-c3cc(O)no3)cn1)CC2 [Example 4.193, (5′S,7a′R)-1-[5-(3-hydroxy-1,2-oxazol-5-yl)pyridin-2-yl]-5′-phenyltetrahydro-3′H-spiro[piperidine-4,2′-pyrrolo[2,1-b] [1,3]oxazol]-3′-one]
18 | 0.147 µM | O=C(NC1(C(F)(F)F)CC1)c1nc(N2CCC3(CC2)O[C@@H]2CC[C@@H](c4cc(F)cc(F)c4)N2C3=O)ncc1F [Example 7.10, 2-[(5′S,7a′R)-5′-(3,5-difluorophenyl)-3′-oxotetrahydro-1H,3′H-spiro[piperidine-4,2′-pyrrolo[2,1-b][1,3]oxazol]-1-yl]-5-fluoro-N-[1-(trifluoromethyl)cyclo-propyl]pyrimidine-4-carboxamide]
19 | 0.0454 µM | Cn1cc([C@@H]2CC[C@H]3OC4(CCN(c5ccc(C#N)c6ncnn56)CC4)C(=O)N32)cn1 [Example 20.1, 5-((5′S,7a′R)-5′-(1-Methyl-1H-pyrazol-4-yl)-3′-oxotetrahydro-3′H-spiro[piperidine-4,2′-pyrrolo[2,1-b]oxazol]-1-yl)-[1,2,4]triazolo[1,5-a]pyridine-8-carbonitrile]
20 | < 0.025 µM | O=C1N2[C@@H](CC[C@H]2c2ccccc2)OC12CCN(c1ccc(Cl)c3ccnn13)CC2 [Example 4.153, (5′S,7a′R)-1-(4-chloropyrazolo[1,5-a]pyridin-7-yl)-5′-phenyltetrahydro-3′H-spiro[piperidine-4,2′-pyrrolo[2,1-b] [1,3]oxazol]-3′-one]
21 | 0.24 µM | N#Cc1ccc(N2CCC3(CC2)O[C@@H]2CC[C@@H](c4cc(F)cc(F)c4)N2C3=O)nn1 [Example 4.100, 6-((5′S,7a′R)-5′-(3,5-difluorophenyl)-3′-oxotetrahydro-3′H-spiro[piperidine-4,2′-pyrrolo[2,1-b]oxazol]-1-yl)pyridazine-3-carbonitrile]
22 | < 0.025 µM | N#Cc1cc([C@@H]2CC[C@H]3OC4(CCN(c5ccnc6c(F)cnn56)CC4)C(=O)N32)ccc1F [Example 20.6, 2-fluoro-5-[(5′S,7a′R)-1-(3-fluoropyrazolo[1,5-a]pyrimidin-7-yl)-3′-oxotetrahydro-3′H-spiro[piperidine-4,2′-pyrrolo[2,1-b][1,3]oxazol]-5′-yl]benzonitrile]
23 | < 0.025 µM | O=C(c1nsnc1Cl)N1CCC2(CC1)O[C@@H]1CC[C@@H](c3cc(F)cc(F)c3)N1C2=O [Example 6.19, (5′S,7a′R)-1-(4-chloro-1,2,5-thiadi-azole-3-carbonyl)-5′-(3,5-difluorophenyl)-tetrahydro-3′H-spiro [piperidine-4,2′-pyrrolo[2,1-b][1,3]oxazol]-3′-one]
24 | 0.0669 µM | N#Cc1ccc(N2CCC3(CC2)C[C@@H]2OC[C@@H](c4ccccc4)N2C3=O)c(F)c1 [Example 11.3, 3-fluoro-4-[(3′R,7a′S)-5′-oxo-3′-phenyltetrahydro-1H,5′H-spiro[piperidine-4,6′-pyrrolo[2,1-b][1,3]oxazol]-1-yl]benzonitrile]
25 | < 0.025 µM | N#Cc1cncc([C@@H]2CC[C@H]3SC4(CCN(c5ccnc6c(F)cnn56)CC4)C(=O)N32)c1 [Example 4.112, 5-[(5′S,7a′R)-1-(3-fluoropyrazolo[1,5-a]pyrimidin-7-yl)-3′-oxotetrahydro-3′H-spiro[piperidine-4,2′-pyrrolo[2,1-b] [1,3]thiazol]-5′-yl]pyridine-3-carbonitrile]
26 | 0.192 µM | Cc1ccc(C(=O)N2CCC3(CC2)O[C@@H]2CC[C@@H](c4cc(F)cc(F)c4)N2C3=O)nc1C [Example 6.93, (5′S,7a′R)-5′-(3,5-difluorophenyl)-1-(5,6-dimethylpyridine-2-carbonyl)tetrahydro-3′H-spiro[piperidine-4,2′-pyrrolo[2,1-b] [1,3]oxazol]-3′-one]

Row | Compound | EC50
27 | Cc1ncc([C@@H]2CC[C@H]3OC4(CCN(C(=O)c5ccccc5)CC4)C(=O)N32)cc1F [Example 2.1, (5′S,7a′R)-1-benzoyl-5′-(5-fluoro-6-methylpyridin-3-yl)tetrahydro-3′H-spiro[piperidine-4,2′-pyrrolo[2,1-b]oxazol]-3′-one, TFA salt.] | 0.0765 µM
28 | N#Cc1ccc(N2CCC3(CC2)O[C@@H]2CC[C@@H](c4cc(F)cc(F)c4)N2C3=O)cc1F [Example 4.18, 4-[(5′S,7a′R)-5′-(3,5-difluorophenyl)-3′-oxotetrahydro-1H,3′H-spiro[piperidine-4,2′-pyrrolo[2,1-b] [1,3]oxazol]-1-yl]-2-fluorobenzonitrile] | < 0.025 µM
